Measurements published in ChEMBL document CHEMBL1201862, “PubChem BioAssay data set” (2004).
Where “and” joins values, the source holds several entries; their conditions need not be identical. Identical values can stand only once.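 In this assay, cells in 96-well plates receive the compound at five concentrations for 48 hours. Endpoints are linearly interpolated between the surrounding concentrations. Abbreviation: GI50, concentration required for 50% inhibition of growth.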 Calls of active or inactive are those of the source. Rule as the data show it: active = GI50 up to about 1.1 µM and inactive = higher.

What was measured:
Experiment in all cases: growth of human tumour cells (NCI), 48 h
SF-539 = tested on: SF-539
OVCAR-3 = tested on: OVCAR-3
HOP-92 = tested on: HOP-92
SF-268 = tested on: SF-268
A498 = tested on: A498
MCF7 = tested on: MCF7
HOP-62 = tested on: HOP-62
SR = tested on: SR
RXF 393 = tested on: RXF 393
IGROV-1 = tested on: IGROV-1
NCI-H226 = tested on: NCI-H226
HCT-116 = tested on: HCT-116
UACC-62 = tested on: UACC-62
ACHN = tested on: ACHN
786-0 = tested on: 786-0
MDA-MB-231 = tested on: MDA-MB-231
Malme-3M = tested on: Malme-3M
OVCAR-5 = tested on: OVCAR-5
U-251 = tested on: U-251
SK-MEL-2 = tested on: SK-MEL-2

Row | Structure (SMILES) | GI50 (SF-539) | GI50 (OVCAR-3) | GI50 (HOP-92) | GI50 (SF-268) | GI50 (A498) | GI50 (MCF7) | GI50 (HOP-62) | GI50 (SR) | GI50 (RXF 393) | GI50 (IGROV-1) | GI50 (NCI-H226) | GI50 (HCT-116) | GI50 (UACC-62) | GI50 (ACHN) | GI50 (786-0) | GI50 (MDA-MB-231) | GI50 (Malme-3M) | GI50 (OVCAR-5) | GI50 (U-251) | GI50 (SK-MEL-2)
1 | O=C(C(Cl)=C(Nc1ccccc1)Nc1ccccc1)C(Cl)Cl | 24.6 µM (inactive) | 23 µM (inactive) | 21.8 µM (inactive) | 31.7 µM (inactive) | 24.8 µM (inactive) | 23.9 µM (inactive) | 15.5 µM (inactive) | 16.5 µM (inactive) | 14.6 µM (inactive) | 32.1 µM (inactive) | 39.1 µM (inactive) | 17.3 µM (inactive) | 18.6 µM (inactive) | 27.5 µM (inactive) | 22.5 µM (inactive) | 40.5 µM (inactive) | 20.3 µM (inactive) | – | – | –
2 | COC(=O)c1onc(C2OC(C)(C)OC2C(O)COC(c2ccccc2)(c2ccccc2)c2ccccc2)c1C(=O)OC (centres undefined) | > 100 µM (inactive) | 87.5 µM (inactive) | > 100 µM (inactive) | > 100 µM (inactive) | > 100 µM (inactive) | > 100 µM (inactive) | > 100 µM (inactive) | 84.3 µM (inactive) | > 100 µM (inactive) | – | > 100 µM (inactive) | > 100 µM (inactive) | 43.6 µM (inactive) | > 100 µM (inactive) | > 100 µM (inactive) | 71.8 µM (inactive) | > 100 µM (inactive) | > 100 µM (inactive) | > 100 µM (inactive) | > 100 µM (inactive)
3 | C=C(C)[C@@H]1CC[C@@]2(C)[C@H]1[C@H]1CCC3[C@@]4(C)CC[C@H](O)C(C)(C)[C@@H]4CC[C@@]3(C)[C@]1(C)C[C@@H]2O (some centres undefined) [CALENDULADIOL] | 67 µM (inactive) | 52.1 µM (inactive) | 92.3 µM (inactive) | 87.1 µM (inactive) | > 100 µM (inactive) | 22.8 µM (inactive) | > 100 µM (inactive) | 28.4 µM (inactive) | 25.9 µM (inactive) | 60.3 µM (inactive) | > 100 µM (inactive) | 43.5 µM (inactive) | – | 21.9 µM (inactive) | 38 µM (inactive) | 46.6 µM (inactive) | 33 µM (inactive) | 63.2 µM (inactive) | 25.3 µM (inactive) | –
4 | Cc1ccc2oc(=O)c(C(=O)Nc3nc(C45CC6CC(CC(C6)C4)C5)cs3)cc2c1 | > 100 µM (inactive) | > 100 µM (inactive) | > 100 µM (inactive) | > 100 µM (inactive) | > 100 µM (inactive) | > 100 µM (inactive) | > 100 µM (inactive) | > 100 µM (inactive) | > 100 µM (inactive) | > 100 µM (inactive) | > 100 µM (inactive) | > 100 µM (inactive) | – | > 100 µM (inactive) | > 100 µM (inactive) | > 100 µM (inactive) | > 100 µM (inactive) | > 100 µM (inactive) | > 100 µM (inactive) | –
5 | CCCCCC#CCOC(=O)C(=[N+]=[N-])P(=O)(c1ccccc1)c1ccccc1 | > 10 µM (inactive) | > 10 µM (inactive) | > 10 µM (inactive) | > 10 µM (inactive) | > 10 µM (inactive) | > 10 µM (inactive) | > 10 µM (inactive) | > 10 µM (inactive) | > 10 µM (inactive) | > 10 µM (inactive) | > 10 µM (inactive) | 8.26 µM (inactive) | > 10 µM (inactive) | > 10 µM (inactive) | > 10 µM (inactive) | > 10 µM (inactive) | > 10 µM (inactive) | > 10 µM (inactive) | > 10 µM (inactive) | –
6 | CSc1nc(=S)[nH]c2c1c(C)nn2-c1ccccc1 | 28.1 µM (inactive) | 35.5 µM (inactive) | 7.1 µM (inactive) | 22.1 µM (inactive) | 30.5 µM (inactive) | 17.8 µM (inactive) | 41.7 µM (inactive) | 11.2 µM (inactive) | 26.2 µM (inactive) | – | 17.7 µM (inactive) | 17.8 µM (inactive) | 14.5 µM (inactive) | 21.9 µM (inactive) | 24.3 µM (inactive) | 22.2 µM (inactive) | 17.1 µM (inactive) | 51.1 µM (inactive) | 29.4 µM (inactive) | 22.8 µM (inactive)
7 | COc1ccc2[nH]cc([C@@H]3C4CCC(C4)[C@H]3NCc3cccc(CN[C@H]4C5CCC(C5)[C@@H]4c4c[nH]c5ccc(OC)cc45)c3)c2c1 | 1 µM (active) and 1.73 µM (inactive) | 1.65 µM (inactive) and 1.54 µM (inactive) | 1.1 µM (active) and 1.31 µM (inactive) | 1.53 µM (inactive) and 1.47 µM (inactive) | 1.82 µM (inactive) and 1.78 µM (inactive) | 1.5 µM (inactive) and 1.01 µM (active) | 1.62 µM (inactive) and 1.6 µM (inactive) | 231 nM (active) and 250 nM (active) | 1.36 µM (inactive) and 1.66 µM (inactive) | 1.42 µM (inactive) and 1.58 µM (inactive) | 2.01 µM (inactive) and 1.91 µM (inactive) | 766 nM (active) and 678 nM (active) | 1.8 µM (inactive) and 1.75 µM (inactive) | 1.76 µM (inactive) and 1.16 µM (inactive) | 731 nM (active) and 708 nM (active) | 1.44 µM (inactive) and 1.2 µM (inactive) | 1.86 µM (inactive) and 1.88 µM (inactive) | 1.55 µM (inactive) and 1.71 µM (inactive) | – | 1.59 µM (inactive) and 1.55 µM (inactive)
